US8765755B2, “N-containing heterocyclic compounds” (YM Biosciences Australia Pty Ltd, priority 2007, dated 2014)

What was measured:
[1] = tested on: BafT_J3; assay: Cellular screening, BaF3 TEL:JAK3 cells (Alamar Blue); type: cell-based; details: Mus musculus, 40 hr incubation
Method in brief: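 Growth-factor-independent BaF3 tet-off cells express a TEL(nt 1–487)/JAK3 kinase-domain fusion and are grown without WEHI 3B medium. Compound plates were prepared at 20 μM and added as 10× final. After 40 h at 37 °C, 5% CO2, Alamar Blue was added for 4–6 h and read at 544 nm.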

[2] = target: T1, human JAK2 (Homo sapiens, UniProt O60674); assay: JAK2 kinase enzyme assay (Alphascreen); type: biochemical; details: 80 or 625 um ATP
T1 construct: The kinase domain of human JAK2 was amplified; GST (N); made in house; host or cells: Sf9 (Spodoptera frugiperda) insect cells, baculovirus
T1 sequence (O60674 849-1124 limits assumed): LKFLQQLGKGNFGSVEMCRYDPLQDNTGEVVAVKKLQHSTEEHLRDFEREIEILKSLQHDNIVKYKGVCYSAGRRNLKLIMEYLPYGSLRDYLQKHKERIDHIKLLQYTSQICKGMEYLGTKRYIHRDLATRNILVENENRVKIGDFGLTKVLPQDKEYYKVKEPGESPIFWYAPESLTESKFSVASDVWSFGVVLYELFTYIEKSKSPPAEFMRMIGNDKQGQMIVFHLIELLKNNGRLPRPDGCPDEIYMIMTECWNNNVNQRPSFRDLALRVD
Method in brief: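 Compounds at 5 μM final were pre-incubated 20 min with Sf9-expressed GST-JAK2 kinase domain in HEPES pH 7.5 phosphotyrosine buffer, then incubated 60 or 90 min with 80 or 625 um ATP. Substrate was biotinylated peptide 1 (111 μM final) or peptide 2 (133 μM final). Phosphotyrosine was detected by AlphaScreen acceptor/streptavidin donor beads after 2–3 h.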

[3] = target: T2, human JAK3 (Homo sapiens, UniProt P52333); assay: JAK3 kinase enzyme assay (Alphascreen); type: biochemical; details: 80 or 625 um ATP
T2 construct: The kinase domain of human JAK3 was amplified; GST (N); made in house; host or cells: Sf9 (Spodoptera frugiperda) insect cells, baculovirus
T2 sequence (P52333 822-1111 limits assumed): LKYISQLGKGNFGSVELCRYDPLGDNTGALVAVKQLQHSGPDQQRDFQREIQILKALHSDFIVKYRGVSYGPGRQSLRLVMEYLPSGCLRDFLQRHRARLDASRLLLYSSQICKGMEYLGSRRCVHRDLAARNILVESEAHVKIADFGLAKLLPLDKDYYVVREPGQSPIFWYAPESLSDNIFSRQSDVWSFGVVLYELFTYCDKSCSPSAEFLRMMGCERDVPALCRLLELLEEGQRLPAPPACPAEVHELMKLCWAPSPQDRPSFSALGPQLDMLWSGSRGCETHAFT
Method in brief: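 Sf9-expressed GST-tagged human JAK3 kinase domain was pre-incubated 20 min with compound at 5 μM final in HEPES pH 7.5 buffer. Then 60 or 90 min reaction with 80 or 625 μM ATP and biotinylated peptide substrate at 111 or 133 μM. AlphaScreen phosphotyrosine acceptor and streptavidin donor beads, 2–3 h.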

[4] = target: T3, human JAK1 (Homo sapiens, UniProt P23458); assay: JAK1 kinase enzyme assay (Alphascreen); type: biochemical; details: 80 or 625 um ATP
T3 construct: The kinase domain of human JAK1 was amplified; GST (N); made in house; host or cells: Sf9 (Spodoptera frugiperda) insect cells, baculovirus
T3 sequence (P23458 875-1153 limits assumed): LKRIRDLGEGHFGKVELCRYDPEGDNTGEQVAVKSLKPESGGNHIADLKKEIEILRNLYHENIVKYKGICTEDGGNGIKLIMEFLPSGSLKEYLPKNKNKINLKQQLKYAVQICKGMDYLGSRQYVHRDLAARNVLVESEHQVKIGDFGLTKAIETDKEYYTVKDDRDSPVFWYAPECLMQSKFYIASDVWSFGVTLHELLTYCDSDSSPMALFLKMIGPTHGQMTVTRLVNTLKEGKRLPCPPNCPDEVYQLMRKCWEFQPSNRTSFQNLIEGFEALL
Method: For screening purposes, compounds (in 100% DMSO) were warmed at 37 degrees for at least 20 minutes before use. A […] stock was initially made in assay buffer, where the final concentration of DMSO was 0.3%. The stocks were then diluted in 384 well Optiplates (Packard) where the final concentration of the compound was 5 μM.
The kinase domain of human JAK1 was amplified from U937mRNA using the polymerase chain reaction with the following primers: […]
The JAK1 PCR products were cloned into the pDest20 destination vector (Gibco). The JAK1 plasmid was then transformed into competent DH10Bac cells (Gibco), and the recombinant baculovirus was prepared via Sf9 insect cell transfection.
Baculovirus preparations from each of the JAK family members were infected into one litre of Sf9 (Spodoptera frugiperda) cells (Invitrogen) grown in SF900II serum free medium (Invitrogen) to a cell density of approximately 2×10^6 cells/ml. Cells were infected with virus at a cell culture to virus stock ratio of 20:1. Cells were harvested and lysed 48 hours post infection. The GST-tagged JAK kinase domains were purified by affinity chromatography on a GSH agarose column (Scientifix).
Kinase assays were performed in 384 well Optiplates (Packard) using an Alphascreen Protein Tyrosine KinaseP100 detection kit The compounds were pre-incubated with affinity purified PTK domain in the presence of phosphotyrosine assay buffer (10 mM HEPES, pH 7.5, 100 mM MgCl2, 25 mM NaCl, 200 mM sodium vanadate and 0.1% Tween 20) for 20 minutes. The compounds were then incubated with substrate in the presence of either 80 or 625 um ATP for 60 or 90 minutes. The substrate used was either susbtrate-1 with the sequence biotin-EGPWLEEEEEAYGWMDF-NH2 [SEQ. ID. NO. 13] (final concentration 111 μM) or susbtrate-2 substrate with the sequence biotin-EQEDEPEGDYFEWLEPE (final concentration 133 μM). Alphascreen phosphotyrosine acceptor beads followed by streptavidin donor beads at a concentration of 1/100 in stop buffer were added to each well under subdued light and incubated for 2-3 hours. The Alphascreen plates were read on a Packard Fusion Alpha instrument.

[5] = tested on: CTLL2; assay: Cellular screening, CTLL2 cells (Alamar Blue); type: cell-based; details: Mus musculus, CTLL-2, 40 hr incubation
Method in brief: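 CTLL2 cells in late log phase were incubated with compounds, from screening plates at 20 μM, for 40 hr at 37° C, 5% CO2. Viability was read by Alamar Blue, added for a further 4-6 hours, with the read at 544 nm.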

[6] = tested on: BAF3wt; assay: Cellular screening, BaF3 wild-type cells (Alamar Blue); type: cell-based; details: Mus musculus, 40 hr incubation
Method in brief: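 BaF3 wild-type cells grown in DMEM with 10% FCS and 10% WEHI 3B conditioned medium, incubated with compound for 40 h at 37 °C, 5% CO2. Viability read by Alamar Blue after a further 4-6 h, at 544 nm; screening concentration 20 μM in dilution plate.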

[7] = tested on: BafT_J2; assay: Cellular screening, BaF3 TEL:JAK2 cells (Alamar Blue); type: cell-based; details: Mus musculus, 40 hr incubation
Method in brief: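 BaF3 cells expressing a TEL–JAK2 kinase-domain fusion, growth-factor independent, were exposed to compounds for 40 hr at 37° C, 5% CO2. Screening concentration was 20 μM in the dilution plate, added as 10× final. Viability read with Alamar Blue after a further 4-6 h, at 544 nm.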

Row | Structure (SMILES) | IC50 [1] [nM] | IC50 [2] [nM] | IC50 [3] [nM] | IC50 [4] [nM] | IC50 [5] [nM] | IC50 [6] [nM] | IC50 [7] [nM] | IC50 ([1]; given as number) [nM] | IC50 ([5]; given as number) [nM] | IC50 ([6]; given as number) [nM]
1 | N#CCC(=O)Nc1cccc(-c2csc3cnc(Nc4ccc(N5CCOCC5)cc4)nc23)c1 [Compound 16, 2-cyano-N-(3-(2-(4-morpholinophenylamino)thieno[3,2-d]pyrimidin-7-yl)phenyl)acetamide] | < 1000 | < 100 | < 100 | < 100 | < 1000 | < 1000 | < 1000 |  |  | 
2 | CS(=O)(=O)Nc1ccc(-c2csc3cnc(Nc4ccc(N5CCOCC5)cc4)nc23)cc1 [Compound 14, N-(4-(2-(4-morpholinophenylamino)thieno[3,2-d]pyrimidin-7-yl)phenyl)methanesulfonamide] | < 1000 | < 100 | < 100 | < 100 | < 1000 | < 1000 | < 1000 |  |  | 
3 | COc1cc(-c2csc3cnc(Nc4ccc(N5CCOCC5)cc4)nc23)ccc1O [Compound 15, 2-methoxy-4-(2-(4-morpholinophenylamino)thieno[3,2-d]pyrimidin-7-yl)phenol] |  | < 100 | < 100 | < 100 |  |  | < 1000 | > 20000 | > 20000 | > 20000
4 | CC(C)(C)NS(=O)(=O)c1cccc(-c2csc3cnc(Nc4cccc(N5CCOCC5)c4)nc23)c1 [Compound 47, N-tert-butyl-3-(2-(3-morpholinophenylamino)thieno[3,2-d]pyrimidin-7-yl)benzenesulfonamide] | < 5000 | < 100 | < 500 | < 100 | < 5000 | < 5000 | < 5000 |  |  | 
5 | CS(=O)(=O)Nc1cccc(-c2csc3cnc(Nc4ccc(N5CCOCC5)cc4)nc23)c1 [Compound 18, N-(3-(2-(4-morpholinophenylamino)thieno[3,2-d]pyrimidin-7-yl)phenyl)methanesulfonamide] | < 1000 | < 100 | < 100 | < 100 | < 1000 | < 1000 | < 1000 |  |  | 
6 | CC(C)(C)NS(=O)(=O)c1cccc(-c2csc3cnc(Nc4cccc(CO)c4)nc23)c1 [Compound 48, N-tert-butyl-3-(2-(3-(hydroxymethyl)phenylamino)thieno[3,2-d]pyrimidin-7-yl)benzenesulfonamide] | < 1000 | < 100 | < 500 | < 100 | < 1000 | < 1000 | < 1000 |  |  | 
7 | NS(=O)(=O)c1ccc(-c2csc3cnc(Nc4ccc(N5CCOCC5)cc4)nc23)cc1 [Compound 11, 4-(2-(4-morpholinophenylamino)thieno[3,2-d]pyrimidin-7-yl)benzenesulfonamide] | < 5000 | < 100 | < 100 | < 100 | < 1000 | < 5000 | < 1000 |  |  | 
8 | COc1ccc(Nc2ncc3scc(-c4cccc(S(=O)(=O)NC(C)(C)C)c4)c3n2)cc1OC [Compound 53, N-tert-butyl-3-(2-(3,4-dimethoxyphenylamino)thieno[3,2-d]pyrimidin-7-yl)benzenesulfonamide] | < 1000 | < 100 | < 500 | < 100 | < 5000 | < 1000 | < 1000 |  |  | 
9 | CCNC(=O)Nc1ccc(-c2csc3cnc(Nc4ccc(N5CCOCC5)cc4)nc23)cc1OC [Compound 13, 1-ethyl-3-(2-methoxy-4-(2-(4-morpholinophenylamino)thieno[3,2-d]pyrimidin-7-yl)phenyl)urea] | < 5000 | < 100 | < 100 | < 500 | < 5000 | < 1000 | < 1000 |  |  | 
10 | CS(=O)(=O)N(CC#N)c1cccc(-c2csc3cnc(Nc4ccc(N5CCOCC5)cc4)nc23)c1 [Compound 31, N-(cyanomethyl)-N-(3-(2-(4-morpholinophenylamino)thieno[3,2-d]pyrimidin-7-yl)phenyl)methanesulfonamide] | < 1000 | < 100 | < 100 | < 100 | < 1000 | < 1000 | < 1000 |  |  | 
11 | Cn1cc(-c2ccc(S(N)(=O)=O)cc2)c2nc(Nc3ccc(N4CCOCC4)cc3)ncc21 [Compound 34, 4-(5-methyl-2-(4-morpholinophenylamino)-5H-pyrrolo[3,2-d]pyrimidin-7-yl)benzenesulfonamide] |  | < 100 | < 500 | < 100 |  | < 20000 | < 1000 | > 20000 | > 20000 | 
12 | COc1cc(Nc2ncc3scc(-c4cccc(S(=O)(=O)NC(C)(C)C)c4)c3n2)cc(OC)c1OC [Compound 50, N-tert-butyl-3-(2-(3,4,5-trimethoxyphenylamino)thieno[3,2-d]pyrimidin-7-yl)benzenesulfonamide] | < 1000 | < 100 | < 500 | < 100 | < 1000 | < 1000 | < 1000 |  |  | 
